Experimental data taken from US12178838B2, “Synthetic neuromodulatory peptides” (Lactocore, Inc., priority 2019, dated 2024).

Tested on: BALB/C mice
Assay: Porsolt swim test (two-day modification) in mice
Type: in vivo
Settings: ip; Diazepam 0.75 mg/kg
Protocol: After an adaptation period, the test substance was intraperitoneally injected into mice. Behavioral parameters were measured in 30 minutes after injection. The tests were administered as follows: day 1—the Open field test, day 3—the Elevated plus maze test, day 5—the Marble burying test, days 12-13—the Porsolt swim (two-day modification) test.
In the Porsolt Swim test, two tests were conducted in two days. The installation is a transparent cylinder, 30 cm in height, 10 cm in diameter, filled with water (temperature about 21-23° C.) to the mark of 25 cm height. On the first day each animal was placed into the cylinder for 10 minutes. Behavioral parameters were not registered. On the second day, the animals were placed into the cylinder for 5 minutes. The following parameters were measured: duration of active (vigorous movements of all limbs) and passive (weak movements of hind limbs) swimming, as well as immobility (immobilization) (Porsolt et al. (1977) Behavioral despair in mice: a primary screening test for antidepressants. Arch Int Pharmacodyn Ther. 229(2):327-36). After each test, the mice were placed into a heated cell to dry.

CN1C(=O)CN=C(c2ccccc2)c2cc(Cl)ccc21 [Diazepam]
tested parameters (duration of active and passive swimming, immobility time): did not lead to the changes in any tested parameter
